For 7 compounds, IC50 results are on record in ChEMBL document CHEMBL1127129, “N,N-disubstituted acetamidines as high affinity sigma receptor ligands” (Bioorg Med Chem Lett, 1993).

The assay has as its target Glutamate NMDA receptor. The assay can be described thus: The compound was evaluated for binding affinity against NMDA receptor ion-channel site using [3H]-MK 801 radioligand in rat brain membranes. The format is cell membranes.
Compound `C/C(=N\C12CC3CC(CC(C3)C1)C2)Nc1ccccc1C` had an IC50 of 10 µM.

`C/C(=N\C12CC3CC(CC(C3)C1)C2)NC12CC3CC(CC(C3)C1)C2` came in with an IC50 of 10 µM.

Regarding `C/C(=N\C1CCCCC1)NC12CC3CC(CC(C3)C1)C2`, the half-inhibitory concentration (IC50) stood at 10 µM. For the compound `C/C(=N\C1CC2CCC1C2)Nc1ccccc1C` (configuration not stated), the IC50 was determined as 80 µM.

`C/C(=N\c1ccccc1C)Nc1ccccc1C` gave an IC50 of 10 µM.

`C/C(=N\C1CCCCC1)Nc1ccccc1C`: the concentration for half-maximal inhibition (IC50) turned out to be 10 µM.

On to `C/C(=N\c1ccc(Br)cc1C)Nc1ccc(Br)cc1C`, for which the IC50 was 9.11 µM.

Broadly, the IC50 is the point on the concentration scale where inhibition reaches its midpoint. A high value points to a need for much substance.
